We go through twelve compounds from patent US11667630B2, “Nitrogen-containing 6-membered cyclic compound” (Asahi Kasei Pharma Corporation, priority 2017, dated 2023).

The term EC50 denotes the concentration needed to bring the measured effect to its halfway point.

human EP4 receptor, sequence (P35408 whole entry): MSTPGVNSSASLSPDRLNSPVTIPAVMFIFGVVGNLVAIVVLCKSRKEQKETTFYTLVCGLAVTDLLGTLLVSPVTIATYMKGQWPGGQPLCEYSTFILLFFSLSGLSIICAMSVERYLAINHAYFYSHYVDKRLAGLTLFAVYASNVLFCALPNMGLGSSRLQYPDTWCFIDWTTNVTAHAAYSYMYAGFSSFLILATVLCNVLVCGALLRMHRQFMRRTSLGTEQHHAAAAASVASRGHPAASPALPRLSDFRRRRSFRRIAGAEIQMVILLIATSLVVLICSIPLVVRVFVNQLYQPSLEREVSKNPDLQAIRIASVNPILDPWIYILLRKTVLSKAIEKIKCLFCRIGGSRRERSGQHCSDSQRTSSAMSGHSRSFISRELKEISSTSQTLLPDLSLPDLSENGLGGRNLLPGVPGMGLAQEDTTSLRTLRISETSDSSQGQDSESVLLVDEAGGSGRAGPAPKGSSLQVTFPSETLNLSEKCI

The target of the experiment is human EP4 receptor (Homo sapiens, UniProt P35408). Briefly: Measurement of EP4 agonist activity (cAMP production). The experiment is classed as cell-based. Set-up: expressed in transfected cells; host or cells: HEK293. Conditions: cAMP production in HEK293 cells stably expressing human EP4 receptor; average values where measured two or more times. How it is done:
In order to investigate EP4 receptor agonist activity of the compounds of the present invention, production of cAMP was measured in HEK293 cells that were made to stably express the human EP4 receptor.
By using Refseq Database, prostaglandin E receptor was searched for. As a result, gene information of human EP4 (NM_000958) receptor was obtained. On the basis of this sequence information, the human EP4 receptor gene was cloned by PCR in a conventional manner using human cDNA as the template, and HEK293 cells that were made to stably express the human EP4 receptor were established. When cryopreserved cells of this strain were thawed and used, cells subcultured three times or more within a certain period of time (about 1 to 2 weeks) by using Dulbecco's Modified Eagle's Medium (Dulbecco's Modified Eagle's Medium may be henceforth abbreviated as DMEM) containing 10% FBS, 50 units each of penicillin and streptomycin were used. The subcultured cells were inoculated in wells of a poly-D-lysine-coated 96-well plate at a density of 2×10^4 to 2.5×10^4 cells/well, and cultured for one day. The medium in the wells was removed by suction, then DMEM (80 μL) was added to each well, and incubation was performed at 37° C. for 15 minutes. […] The reaction was allowed at 37° C. for 30 minutes, then the medium was removed by suction, Assay/Lysis Buffer (100 μL) contained in cAMP Screen Kit (produced by Applied Biosystems) was added to terminate the reaction. Then, the reaction mixture was incubated at 37° C. for 30 minutes to prepare a sample for quantification of cAMP, and the amount of cAMP in the sample was quantified according to the method indicated in cAMP Screen Kit. By non-linear regression of the compound concentration and the amount of cAMP, the concentration of the compound required for increasing cAMP to 50% of the maximum increase (EC50 value) was calculated by using the Kaleida Graph.
In the case of `O=C(O)c1cc(Cl)c(CCN2C(=O)SCCN2CCC(O)Cc2cccc(C#Cc3ccsc3)c2)s1` (stereo not drawn) [Example 17, 4-Chloro-5-(2-(4-(3-hydroxy-4-(3-(thiophen-3-ylethynyl)phenyl)butyl)-2-oxo-1,3,4-thiadiazinan-3-yl)ethyl)thiophene-2-carboxylic acid], the concentration giving a half-maximal response (EC50) was 0.026 nM.
The compound `Cc1cscc1C#Cc1cccc(CC(O)CCN2CCSC(=O)N2CCc2ccc(C(=O)O)s2)c1` (stereo not drawn) [Example 4, 5-(2-(4-(3-Hydroxy-4-(3-((4-methylthiophen-3-yl)ethynyl)phenyl)butyl)-2-oxo-1,3,4-thiadiazinan-3-yl)ethyl)thiophene-2-carboxylic acid] showed an EC50 of 0.34 nM.
Under `O=C(O)c1ccc(CCN2C(=O)SCCN2CCC(O)Cc2cccc(C#Cc3cscc3-c3ccccc3)c2)s1` (stereo not drawn) [Example 21, 5-(2-(4-(3-Hydroxy-4-(3-((4-phenylthiophen-3-yl)ethynyl)phenyl)butyl)-2-oxo-1,3,4-thiadiazinan-3-yl)ethyl)thiophene-2-carboxylic acid] stands 0.5 nM.
Under `O=C(O)c1ccc(CCN2C(=O)SCCN2CCC(O)Cc2cccc(/C=C/c3ccsc3)c2)s1` (stereo not drawn) [Example 27, (E)-5-(2-(4-(3-Hydroxy-4-(3-(2-(thiophen-3-yl)vinyl)phenyl)butyl)-2-oxo-1,3,4-thiadiazinan-3-yl)ethyl)thiophene-2-carboxylic acid] stands 0.09 nM; under `N#Cc1cscc1C#Cc1cccc(CC(O)CCN2CCSC(=O)N2CCc2ccc(C(=O)O)s2)c1` (stereo not drawn) [Example 7, 5-(2-(4-(4-(3-((4-Cyanothiophen-3-yl)ethynyl)phenyl)-3-hydroxybutyl)-2-oxo-1,3,4-thiadiazinan-3-yl)ethyl)thiophene-2-carboxylic acid], 0.09 nM; under `COc1ccccc1C#Cc1cccc(CC(O)CCN2CCSC(=O)N2CCc2ccc(C(=O)O)s2)c1` (stereo not drawn) [Example 16, 5-(2-(4-(3-Hydroxy-4-(3-((2-methoxyphenyl)ethynyl)phenyl)butyl)-2-oxo-1,3,4-thiadiazinan-3-yl)ethyl)thiophene-2-carboxylic acid], 0.4 nM.
Under `O=C(O)c1ccc(CCN2C(=O)SCCN2CCC(O)Cc2cccc(C#Cc3ccco3)c2)s1` (stereo not drawn) [Example 11, 5-(2-(4-(4-(3-(Furan-2-ylethynyl)phenyl)-3-hydroxybutyl)-2-oxo-1,3,4-thiadiazinan-3-yl)ethyl)thiophene-2-carboxylic acid] stands 0.09 nM.
Take `O=C(O)c1cc(Br)c(CCN2C(=O)SCCN2CCC(O)Cc2cccc(C#Cc3ccsc3)c2)s1` (stereo not drawn) [Example 2, 4-Bromo-5-(2-(4-(3-hydroxy-4-(3-(thiophen-3-ylethynyl)phenyl)butyl)-2-oxo-1,3,4-thiadiazinan-3-yl)ethyl)thiophene-2-carboxylic acid]: the EC50 came to 0.035 nM.
Under `O=C(O)c1ccc(CCN2C(=O)SCCN2CCC(O)Cc2cccc(Br)c2)cc1` (stereo not drawn) [Comparative Example 1, 4-(2-(4-(4-(3-Bromophenyl)-3-hydroxybutyl)-2-oxo-1,3,4-thiadiazinan-3-yl)ethyl)benzoic acid, reference compound] stands 2.5 nM.
Under `N#Cc1cc(C#Cc2cccc(CC(O)CCN3CCSC(=O)N3CCc3ccc(C(=O)O)s3)c2)cs1` (stereo not drawn) [Example 12, 5-(2-(4-(4-(3-((5-Cyanothiophen-3-yl)ethynyl)phenyl)-3-hydroxybutyl)-2-oxo-1,3,4-thiadiazinan-3-yl)ethyl)thiophene-2-carboxylic acid] stands 0.6 nM; under `O=C(O)c1ccc(CCN2C(=O)SCCN2CCC(O)Cc2cccc(C#Cc3ccsc3)c2)s1` (stereo not drawn) [Example 1, 5-(2-(4-(3-Hydroxy-4-(3-(thiophen-3-ylethynyl)phenyl)butyl)-2-oxo-1,3,4-thiadiazinan-3-yl)ethyl)thiophene-2-carboxylic acid], 0.045 nM.
Under `O=C(O)c1cc(Cl)c(CCN2C(=O)SCCN2CCC(O)Cc2cccc(C#Cc3ccccn3)c2)s1` (stereo not drawn) [Example 28, 4-Chloro-5-(2-(4-(3-hydroxy-4-(3-(pyridin-2-ylethynyl)phenyl)butyl)-2-oxo-1,3,4-thiadiazinan-3-yl)ethyl)thiophene-2-carboxylic acid] stands 0.087 nM.
